Measurements reported in patent US20140255527A1, “Expression Promoting Agent For Clock Gene And Hyaluronic Acid Synthase Gene” (SHISEIDO COMPANY, LTD., priority 2011, published 2014).

Columns and labels:
Assay type in all cases: cell-based
Conditions in all cases: medical agent for stimulation in cultured human dermal fibroblast system; no data shown
Bmal1 clock gene = assay: Expression amount of Bmal1 clock gene in cultured human dermal fibroblast (RT-PCR, relative to RPLP0)
Experimental: (§1) Moreover, as the clock gene, an amount of expression of a Bmal gene (typified by Bmal1) or a Period gene (typified by Period1) in connection with the core system was measured. As a hyaluronic acid synthase gene, an amount of expression of hyaluronic acid synthase gene 2 (HAS2) was measured. […] In experiments described below, a gene expression amount after 16 hours or 2 hours from the stimulation was used as an index, respectively, and an effect on promotion of expression of the Bmal gene, the Period gene and the HAS2 gene being a test substance was evaluated.
(§2) As a cultured human dermal fibroblast, a commercially available normal human dermal fibroblast derived from adult skin (Cell Application, Inc) was purchased, and used for an experiment. Seeding was made in a DMEM culture medium prepared by adding 10% FBS, 20 mM HEPES, Glutamax and an antibacterial agent, and culture was made at 37° C. under 5% CO2. […] From the cell taken therefrom, RNA was extracted using a commercially available RNA extraction kit, and an expression amount of a clock gene (Period1, Bmal1) and a hyaluronic acid synthase gene (HAS2) was measured using a commercially available PCR primer (Perfect Real Time Primer, TAKARA BIO INC.) according to an RT-PCR method. […]

Period1 clock gene = assay: Expression amount of Period1 clock gene in cultured human dermal fibroblast (RT-PCR, relative to RPLP0)
Experimental: as §1, §2

[1] = test system: HAS2 hyaluronic acid synthase gene; assay: Expression amount of HAS2 hyaluronic acid synthase gene in cultured human dermal fibroblast (RT-PCR, relative to RPLP0)
Experimental: as §1, §2

## C=C[C@@]1(C)CC(=O)[C@]2(O)[C@@]3(C)[C@@H](O)CCC(C)(C)[C@@H]3[C@H](O)[C@H](OC(C)=O)[C@@]2(C)O1 [forskolin]
Bmal1 clock gene
  time of peaked expression amount of Bmal1 after stimulation (circadian rhythm): approximately 16 hours
Period1 clock gene
  time of peaked expression amount of Period1 after stimulation (circadian rhythm): 2 h
[1]
  time of peaked expression amount of HAS2 after stimulation (circadian rhythm): approximately 16 hours

## C[C@]12CCC(=O)C=C1CC[C@@H]1[C@@H]2[C@@H](O)C[C@@]2(C)[C@H]1CC[C@]2(O)C(=O)CO [cortisol]
Bmal1 clock gene
  time of peaked expression amount of Bmal1 after stimulation (circadian rhythm): approximately 16 hours
Period1 clock gene
  time of peaked expression amount of Period1 after stimulation (circadian rhythm): 2 h
[1]
  time of peaked expression amount of HAS2 after stimulation (circadian rhythm): approximately 16 hours
